Experiments:
PTP1B-OX [1] = target: T1, PTP1B-OX (Homo sapiens, UniProt P18031); experiment: reduction and reactivation of reversibly oxidized PTP1B by TCEP, DiFMUP substrate; format: biochemical; settings: for restoration of PTP1B-OX activity by TCEP in LOPAC primary screen: compound 10 μM; for IC50: wild-type PTP1B-OX, reactivation by TCEP, DiFMUP substrate, read-out: IC50 against PTP1B-OX
T1 construct: Purified PTP1B (1–321) (100 nM) was mixed with increasing concentrations of H2O2; 6xHis (C); made in house; host or cells: E. coli BL21 (DE3)-RIL
T1 sequence (P18031 1-321): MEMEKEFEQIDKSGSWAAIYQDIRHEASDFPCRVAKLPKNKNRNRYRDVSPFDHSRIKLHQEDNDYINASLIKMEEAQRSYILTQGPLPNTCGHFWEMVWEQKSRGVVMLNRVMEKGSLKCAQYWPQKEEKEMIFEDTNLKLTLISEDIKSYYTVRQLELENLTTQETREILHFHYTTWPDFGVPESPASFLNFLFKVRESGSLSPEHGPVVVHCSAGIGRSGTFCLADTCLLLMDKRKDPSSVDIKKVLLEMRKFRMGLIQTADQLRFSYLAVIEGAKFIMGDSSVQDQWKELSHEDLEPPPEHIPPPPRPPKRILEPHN
Procedure: Therefore, our approach has been to adapt this assay, which we used to screen for conformation-sensor scFvs[17], now to screen for small molecules that act through a similar mechanism. Our primary screening assay tested the ability of small molecule inhibitors to antagonize the reduction and reactivation of the oxidized conformation of PTP1B, similar to that of scFv45 (Fig. 4a).
(§1) Purified PTP1B (1–321) (100 nM) was mixed with increasing concentrations of H2O2 (0.05–100 mM) in phosphatase assay buffer (50 mM HEPES, pH 7.0, 100 mM NaCl, 0.1% BSA) at room temperature for 5 min. From this reaction mixture PTP1B (10 nM) was used to monitor phosphatase activity using DiFMUP as the substrate, with or without 5 mM TCEP. Activity of each sample was compared to that of the untreated PTP1B in the presence of 5 mM TCEP.
To screen the LOPAC library against PTP1B-OX, 0.5 μl of 1 mM compound in 100% DMSO was added to 384-well plates, resulting in a final compound concentration of 10 μM for the primary screen. Recombinant PTP1B (100 nM) was reversibly oxidized and inactivated with H2O2 (4 mM). The phosphatase activity was restored by a quick buffer exchange and addition of reducing agent (TCEP). PTP1B-OX was incubated with LOPAC compounds (10 μM) in the assay buffer (50 mM HEPES pH 7.0, 100 mM NaCl, 0.005% Tween, 2 mM EDTA) and the effect of individual compound on stabilizing the reversibly oxidized conformation was assessed by the phosphatase assay under reducing conditions using DiFMUP as substrate. scFv45 was used as positive control.

reduced PTP1B = target: T2, reduced PTP1B (Homo sapiens, UniProt P18031); experiment: phosphatase activity of reduced PTP1B, DiFMUP substrate; format: biochemical
T2 construct: Purified PTP1B (1–321) (100 nM) was mixed with increasing concentrations of H2O2; 6xHis (C); made in house; host or cells: E. coli BL21 (DE3)-RIL
T2 sequence (P18031 1-321): T1 sequence (P18031 1-321)
Procedure: Fig. 4 Identification and characterization of small molecules that mimic the effect of scFv45. a Reversibly oxidized PTP1B (PTP1B-OX) was generated by incubation with H2O2 in vitro, desalted, then assayed (20 nM) in the presence and absence of individual members of the LOPAC library. In the right panel, each dot represents an activity measurement. […] Data are representative of at least two independent experiments (n = 2). b Increasing concentration of sanguinarine was tested against reduced (circle) and oxidized (square) forms of PTP1B, using DiFMUP as substrate. c Increasing concentration of levamisole was tested against reduced (circle) and oxidized (square) PTP1B, using DiFMUP as substrate. d PTP1B-OX (200 nM) was incubated with sanguinarine (25 µM) for 5 min and the complex was diluted 100-fold and the activity was monitored for 120 min continuously. e PTP1B-OX (200 nM) was incubated with levamisole (40 µM) for 5 min and the complex was diluted 100-fold and the activity was monitored for 120 min continuously. f Increasing concentration of chelerythrine, an analog of sanguinarine, was tested against reduced (circle) and oxidized (square) forms of PTP1B, using DiFMUP as substrate. […] Individual data points represent the mean obtained from three separate experiments (n = 3; b–g)
as §1

PTP1B-OX [2] = target: T1, PTP1B-OX; experiment: reduction and reactivation of reversibly oxidized PTP1B by TCEP, DiFMUP substrate; format: biochemical; settings: complex diluted 100-fold, activity monitored 120 min
PKC = settings: cited from earlier work

| Compound | restoration of PTP1B-OX activity by TCEP in LOPAC primary screen (PTP1B-OX [1]) | IC50 (PTP1B-OX [1]) [µM] | inhibition of the reduced form of PTP1B (reduced PTP1B) | reversibility of PTP1B-OX inhibition (PTP1B-OX [2]) | inhibition of PKC (PKC) |
| --- | --- | --- | --- | --- | --- |
| c1ccc([C@H]2CN3CCSC3=N2)cc1 [levamisole] | only able to restore enzymatic activity partially | 36 | no effect | reversible |  |
| C[n+]1cc2c3c(ccc2c2ccc4cc5c(cc4c21)OCO5)OCO3 [sanguinarine] | only able to restore enzymatic activity partially | 25 | no effect | reversible | not an inhibitor |
